Data from PubChem BioAssay (NCI).
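Results reflect a 48-hour exposure of cells in 96-well plates to compound at five concentrations. At the GI50, growth is halved. Definition used: TGI = concentration required for complete inhibition of growth.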 Where a SMILES comes first, the peptide text is derived from it. The star is where a group is joined. Palmitoyl = CCCCCCCCCCCCCCCC(=O)*

Assays:
Assay in all cases: NCI tumour cell line growth inhibition, 48 h
HOP-92 NSCLC = test system: HOP-92 NSCLC
SK-MEL-5 melanoma = test system: SK-MEL-5 melanoma
M14 melanoma = test system: M14 melanoma
COLO 205 colon = test system: COLO 205 colon
RPMI-8226 leukemia = test system: RPMI-8226 leukemia
MDA-MB-435 = test system: MDA-MB-435
NCI-H226 lung = test system: NCI-H226 lung
LOX IMVI melanoma = test system: LOX IMVI melanoma
SN12C renal = test system: SN12C renal
UACC-62 melanoma = test system: UACC-62 melanoma
PC-3 prostate = test system: PC-3 prostate

SMILES	GI50 (HOP-92 NSCLC) [µM]	TGI (HOP-92 NSCLC) [µM]	GI50 (SK-MEL-5 melanoma) [µM]	TGI (SK-MEL-5 melanoma) [µM]	GI50 (M14 melanoma) [µM]	TGI (M14 melanoma) [µM]	GI50 (COLO 205 colon) [µM]	TGI (COLO 205 colon) [µM]	GI50 (RPMI-8226 leukemia) [µM]	TGI (RPMI-8226 leukemia) [µM]	GI50 (MDA-MB-435) [µM]	TGI (MDA-MB-435) [µM]	GI50 (NCI-H226 lung) [µM]	TGI (NCI-H226 lung) [µM]	TGI (LOX IMVI melanoma) [µM]	TGI (SN12C renal) [µM]	TGI (UACC-62 melanoma) [µM]	TGI (PC-3 prostate) [µM]
CCCCCCCCCCCCCCCC(=O)N1CCCC1C(=O)NCC(=O)NC(Cc1ccccc1)C(=O)N1CCCC1C(=O)NC(CO)C(=O)NC(Cc1ccc(O)cc1)C(=O)NC(CCCCN)C(=O)NC(CC(C)C)C(=O)NC(CCCN=C(N)N)C(=O)N1CCCC1C(=O)NCC(N)=O (stereo not drawn) (Palmitoyl-PGFPSYKLRPG-NH2; configuration not given here)	18.7	38.9	28.7	> 100	14.2	27.3	10.3	33.3	11.6	29.3	23.6	> 100	23.5	44.4				
O=C(NCCCl)O/N=C/c1cccnc1		> 100		> 100				> 100		> 100				> 100	> 100	> 100	> 100	
CN(C)CCNC(=O)Cc1ccccc1Nc1c(Cl)cccc1Cl				30.2		33.9		30.6		38.2				34.3	26.8	31.4	33.3	
O[C@H]1[C@H](O)[C@@H](O)CN2CC[C@H](O)[C@H]12		> 100		> 100				> 100		> 100				> 100	> 100	> 100	> 100	
O=C(NN1C(=O)CS(=O)(=O)C1c1ccc(C(F)(F)F)cc1)c1ccncc1 (stereo not drawn)		> 100		> 100		> 100		> 100		> 100				> 100	> 100	> 100		
Cc1ccnc(NC(=S)Nc2ccc([N+](=O)[O-])cc2)c1		> 100		> 100		> 100				> 100		> 100		> 100	> 100		> 100	> 100
O=C(CN1C(=O)CC(c2ccccc2)(c2ccccc2)C1=O)N1CCN(CCO)CC1		> 100		> 100		> 100		> 100		> 100		> 100			> 100	> 100	> 100	> 100
CCOC(=O)/C=C1/C(CCCOCc2ccccc2)C2CCCC23CC2(CCN13)OCCO2 (stereo not drawn)				34.8				34.2		25				66.7	37.9	86.8	50	
Cc1cc(C)nc(NC(=S)Nc2ccc([N+](=O)[O-])cc2)c1		> 100		> 100				> 100		> 100		> 100		> 100	> 100		> 100	> 100
O=C1NC(O)CCN1C1OC(CO)C(O)C1O (stereo not drawn)		> 250		> 92				> 250		> 250				> 250	> 250	> 250	> 250	
CCC(C)(C)n1c(C)nc2c1C(=O)c1ccccc1C2=O				33.7		> 100		46.2						> 100	47.3	> 100	36.1	
COc1ccc(CC(N)=O)cc1OC		> 1170		> 1250				> 1250		> 1250				> 1250	> 1250	> 1250	> 1250	
COc1ccc(NC(=O)CSc2nnc(-c3ccc(NC(C)=O)cc3)o2)cc1				27.7		33.8		36.8						57.8	29.5	41.9	35.2	
CNc1[nH]c(=S)nc2sc3c(c12)CCCC3				> 75				> 75		> 75		> 75		> 75	> 75	> 75	> 75	> 75
Cc1ccsc1/C=N/Nc1cnccn1		> 100		> 100		> 100		> 100		> 100		> 100		> 100	> 100	> 100	> 100	> 100
CCOC(=O)CNC(=O)NC12CC3CC(CC(C3)C1)C2		216		330				363		> 550				> 473	> 550	> 550	416	
CCCN(CCC)c1c([N+](=O)[O-])cc(C(=O)N(CC)CC)cc1[N+](=O)[O-]				26.8		79.5		32.7		36.3				71.3	30.8	> 100	69.1	
Nc1c(S(=O)(=O)c2ccc(Cl)cc2)c2nc3ccccc3nc2n2ccnc12		> 100		> 100		> 100		> 100		> 100				84.1		> 100		
CN1Cc2c(nc(-c3ccccc3)c[n+]2[O-])N(C)C1		> 100		> 100		> 100		> 100		> 100				> 100	> 100	> 100	> 100	
